Source: patent US20260242768A1, “ACETYL-COENZYME A CARBOXYLASE MUTANTS” (CIBUS US LLC, priority 2023, published 2026)
One block for each substance: values may come before it.

Assays:
rice Oryza sativa = assay: Regenerated edited rice shoots established in soil, greenhouse: plant growth, herbicide tolerance, fertility (Example 9); assay type: in vivo
Source text: The D2078G mutation was introduced into a native rice Oryza sativa ACCase gene utilizing PEG delivery of CRISPR-Cas and GRONs into protoplasts. Examples of target spacer sequences for sgRNA targeting the rice ACCase gene are shown, but not limited to, those listed in the below Table 9. Sequence information for exemplary GRONs is shown, but not limited to those listed in the below Table 10. Rice protoplasts were isolated from cell suspension cultures initiated from Cypress mature seed-derived embryogenic calli. A non-coding D2078G GRON with RNP (CRISPR-Cas9 protein plus gRNA complex) was introduced into rice protoplasts using PEG-mediated delivery method. Following PEG treatment, protoplasts were cultured in liquid medium and kept stationary in the dark at 26±2° C. for 2 weeks. After 2 weeks, culture plates were gently scraped to release the divided protoplasts from the bottom of the plates and added equal volume of fresh liquid medium. These cultures were transferred on a rotatory shaker and incubated in the dark at 26±2° C. […]
(§1) The results of herbicide rate tolerance field trials of the D2078G/P2083T line can be seen below in Table 11. The edited plants were sprayed with clethodim, and plant injury was visually scored at (7) seven, (14) fourteen, and (28) days after application of the herbicide (“DAA”) on a 0-100% percentage scale for chlorosis of newest leaf-tips and growing points.

[1] = test system: D2078G/P2083T edited rice line; assay type: in vivo, Oryza sativa; settings: all clethodim spray rates, nine environments
Source text: The clethodim herbicide chosen contained 2.0 pounds active ingredient per gallon. Using a randomized completed block design with three replicates, four clethodim spray rates (5.76, 8.30, 12.10 and 16.00 fluid ounces per acre) were compared to an untreated control (“UTC”). Phytotoxicity rates to access crop response were visually scored (7) seven, (14) fourteen and (28) twenty-eight days after clethodim application (“DAA”) using a 0-100% percentage chlorosis scale. All plots were maintained weed free using additional herbicides tolerant by all rice lines. Yield was collected using a research plot combine to harvest the small plot, and yields were standardized to 12.5% moisture before being converted to a percentage of the untreated control.

D2078G/P2083T line = assay type: in vivo, Oryza sativa; settings: sprayed with clethodim
Source text: as §1

O. sativa ACCase = assay: Growth of Saccharomyces cerevisiae pseudodiploid acc1Δ strains carrying wild-type or mutant OsACCase plasmids, streaked onto plates with increasing concentrations of clethodim (Examples 5, 7, 10; Tables 8, 12); assay type: cell-based, Oryza sativa; set-up: key to growth, 0 mM clethodim / growth, 0.025 mM clethodim / growth, 0.1 mM clethodim / growth, 0.25 mM clethodim / growth, 0.5 mM clethodim / growth, 1 mM clethodim: ++ = Strong growth; + = Poor growth; − = No growth; key to relative growth phenotype, 0.5 mM clethodim / relative growth phenotype, 1 mM clethodim / relative growth phenotype, 2 mM clethodim / relative growth phenotype, highGal / relative growth phenotype, lowGal / relative growth phenotype, 0.05 mM clethodim / relative growth phenotype, 0.1 mM clethodim / relative growth phenotype, 0.25 mM clethodim: +++ high growth; ++ moderate growth; + low to negligible growth; (−) some cell debris, no growth; − no growth or cell debris; settings: for growth, 0 mM clethodim / growth, 0.025 mM clethodim / growth, 0.1 mM clethodim / growth, 0.25 mM clethodim / growth, 0.5 mM clethodim / growth, 1 mM clethodim: Table 12; for growth, 0 mM clethodim: plate with 0 mM clethodim; for growth, 0 mM clethodim / growth, 0.025 mM clethodim / growth, 0.1 mM clethodim / growth, 0.25 mM clethodim / growth, 0.5 mM clethodim / growth, 1 mM clethodim / relative growth phenotype, 0.05 mM clethodim / relative growth phenotype, 0.1 mM clethodim / relative growth phenotype, 0.25 mM clethodim / relative growth phenotype, 0.5 mM clethodim / relative growth phenotype, 1 mM clethodim / relative growth phenotype, 2 mM clethodim: galactose 0.01%; for growth, 0.025 mM clethodim: plate with 0.025 mM clethodim; for growth, 0.1 mM clethodim / relative growth phenotype, 0.1 mM clethodim: plate with 0.1 mM clethodim; for growth, 0.25 mM clethodim / relative growth phenotype, 0.25 mM clethodim: plate with 0.25 mM clethodim; for growth, 0.5 mM clethodim / relative growth phenotype, 0.5 mM clethodim: plate with 0.5 mM clethodim; for growth, 1 mM clethodim / relative growth phenotype, 1 mM clethodim: plate with 1 mM clethodim; for relative growth phenotype, 0.05 mM clethodim: plate with 0.05 mM clethodim; for relative growth phenotype, 2 mM clethodim: plate with 2 mM clethodim; for relative growth phenotype, highGal / relative growth phenotype, lowGal: yeast acc1Δ strain with OsACCase plasmid, no clethodim; for relative growth phenotype, highGal: high galactose plate; for relative growth phenotype, lowGal: low galactose plate; for clethodim tolerance compared to the wild-type (wt) control strain: Example 5
Source text: Mutations at position N2097S and V2098A were combined to determine if point mutations at both positions gave increased resistance compared to either single point mutation. Each of these respective mutations (N2097S, V2098A and N2097S/V2098A) were generated by standard methods and introduced into a Saccharomyces cerevisiae pseudodiploid acc1Δ strain with a plasmid containing wild-type O. sativa ACCase gene. Once each of these mutations were introduced by recombination mediated mutagenesis, the OsACCase wild-type plasmid was removed, and mutation strains were confirmed by sequencing. The three strains, along with a series of controls including a WT strain (negative control), an I1781L mutant strain, and a D2078G mutant strain (positive control), were streaked onto plates with increasing concentrations of clethodim. […] These observations argue that N2097S is an enhancer of V2098A tolerance.
Edits at position S1784N and A1785G were combined to determine if point mutations at both of these two positions gave increased resistance compared to either single point mutation. Each of these respective mutations (S1784N, A1785G and S1784N/A1785G) were generated by standard methods and introduced into a Saccharomyces cerevisiae pseudodiploid acc1Δ strain with a plasmid containing wild-type O. sativa ACCase gene. Once each of these mutations were introduced by recombination mediated mutagenesis, the OsACCase wild-type plasmid was removed, and mutation strains were confirmed by sequencing. The three strains, along with a series of controls including a WT strain (negative control), an I1781L mutant strain, a D2078G mutant strain (positive control), and a V2075L mutant strain were streaked onto plates with increasing concentrations of clethodim.
Each of these respective mutations (D2078G, P2083T, D2078G/P2083T) were generated by standard methods and introduced into a Saccharomyces cerevisiae pseudodiploid acc14 strain with a plasmid containing the wild-type O. sativa ACCase gene. Once plasmids bearing each of these mutations, introduced using recombination-mediated mutagenesis, the OsACCase wild-type plasmid was removed, and strains bearing each mutant plasmid were confirmed by sequencing. The three strains, along with a series of controls including a wild-type strain (negative control), an I1781L mutant strain (medium control), and a pre-existing D2078G mutant strain (positive control) were streaked onto plates with increasing concentrations of clethodim.

[2] = test system: rice (Oryza sativa) plastidal ACCase; assay: Clethodim tolerance of rice ACCase mutations, yeast complementation assay (Examples 1-3); assay type: cell-based; settings: for clethodim tolerance: ACCase mutation tested with the herbicide clethodim
Source text: Joachimiak M. et al Proc Natl Acad Sci U.S.A. 1997 Sep. 2; 94 (18): 9990-5 and WO/2013/074524 and WO/2013/074524 each describe methods to complement a yeast (Saccharomyces cerevisiae) strain lacking the native acc1 gene with either a wt or mutated form of a chimeric plastidal ACCase gene from a plant such as rice (Oryza sativa). Methods to introduce one or more mutations listed herein into the chimeric ACCase gene and subsequently complement the acc1 lacking yeast strain are well known by an individual skilled in the art. In the art assays are known for measuring tolerance of a mutated plant ACCase gene versus a herbicide that is a member of the aryloxyphenoxypropanoate, cyclohexanedione, and/or phenylpyrazoline families of herbicides such as clethodim, sethoxydim, fluazifop, haloxyfop, quizalofop, and pinoxaden (Joachimiak M. et al Proc Natl Acad Sci U.S.A. 1997 Sep. 2; 94 (18): 9990-5 and WO/2013/074524).
A library of random mutations in the rice (Oryza sativa) plastidal ACCase gene was generated and screened for clethodim tolerant clones using a yeast complementation assay.

[3] = plates with increasing clethodim, 0.01% galactose

Substance: D2078G/P2083T: double mutant ACCase; yeast strain and edited rice line
herbicide tolerance (rice Oryza sativa): herbicide tolerance
plant injury [1]: low plant injury
yield [1]: good yield
meristem necrosis (D2078G/P2083T line): limited meristem necrosis except at the highest rates of herbicide application
yield (D2078G/P2083T line; compared to the untreated control plants): increased yield
plant injury (D2078G/P2083T line; visually scored 7, 14, 28 DAA): low plant injury
growth, 0 mM clethodim (O. sativa ACCase): ++
growth, 0.025 mM clethodim (O. sativa ACCase): ++
growth, 0.1 mM clethodim (O. sativa ACCase): ++
growth, 0.25 mM clethodim (O. sativa ACCase): ++
growth, 0.5 mM clethodim (O. sativa ACCase): ++
growth, 1 mM clethodim (O. sativa ACCase): +

Substance: N2097S: mutated ACCase, numbering per SEQ ID NO: 2
clethodim tolerance [2]: neither the N2097S nor the N2097D single mutations provide detectable clethodim tolerance
effect on clethodim tolerance when combined with D2078G, V2075L or V2098A ([2]; combined with either D2078G, V2075L or V2098A): further increases clethodim tolerance
clethodim tolerance compared to the wild-type (wt) control strain (O. sativa ACCase; [3]): does not produce detectable clethodim tolerance

Substance: V2098A: mutated ACCase, numbering per SEQ ID NO: 2
clethodim tolerance [2]: measurable clethodim tolerance
clethodim tolerance compared to the wild-type (wt) control strain (O. sativa ACCase; [3]): did produce tolerance

More lines, main results first:

relative growth phenotype, 0.05 mM clethodim (O. sativa ACCase): (−)
relative growth phenotype, 0.1 mM clethodim (O. sativa ACCase): (−)
relative growth phenotype, 0.25 mM clethodim (O. sativa ACCase): −
relative growth phenotype, 0.5 mM clethodim (O. sativa ACCase): −
relative growth phenotype, 1 mM clethodim (O. sativa ACCase): −
relative growth phenotype, 2 mM clethodim (O. sativa ACCase): −
relative growth phenotype, highGal (O. sativa ACCase): +++
relative growth phenotype, lowGal (O. sativa ACCase): +++
Substance: A1785G: mutated ACCase, numbering per SEQ ID NO: 2
clethodim tolerance [2]: no detectable clethodim tolerance

clethodim concentrations on which the strain grew (O. sativa ACCase; Example 7, plates with increasing clethodim, 0.01% galactose): up to 1.0 mM
growth, 0 mM clethodim (O. sativa ACCase): ++
growth, 0.025 mM clethodim (O. sativa ACCase): ++
growth, 0.1 mM clethodim (O. sativa ACCase): ++
growth, 0.25 mM clethodim (O. sativa ACCase): ++
growth, 0.5 mM clethodim (O. sativa ACCase): ++
growth, 1 mM clethodim (O. sativa ACCase): +
relative growth phenotype, 0.05 mM clethodim (O. sativa ACCase): +++
relative growth phenotype, 0.1 mM clethodim (O. sativa ACCase): +++
relative growth phenotype, 0.25 mM clethodim (O. sativa ACCase): +++
relative growth phenotype, 0.5 mM clethodim (O. sativa ACCase): +++
relative growth phenotype, 1 mM clethodim (O. sativa ACCase): +
relative growth phenotype, 2 mM clethodim (O. sativa ACCase): (−)
relative growth phenotype, highGal (O. sativa ACCase): +++
relative growth phenotype, lowGal (O. sativa ACCase): +++
Substance: D2078G: mutated ACCase, numbering per SEQ ID NO: 2; positive control strain; also edited rice shoots
herbicide tolerance (rice Oryza sativa): strong herbicide tolerance
clethodim tolerance [2]: measurable clethodim tolerance
clethodim tolerance compared to the wild-type (wt) control strain (O. sativa ACCase; [3]): did produce tolerance

relative growth phenotype, 0.05 mM clethodim (O. sativa ACCase): +++
relative growth phenotype, 0.1 mM clethodim (O. sativa ACCase): +++
relative growth phenotype, 0.25 mM clethodim (O. sativa ACCase): +
relative growth phenotype, 0.5 mM clethodim (O. sativa ACCase): (−)
relative growth phenotype, 1 mM clethodim (O. sativa ACCase): (−)
relative growth phenotype, 2 mM clethodim (O. sativa ACCase): (−)
relative growth phenotype, highGal (O. sativa ACCase): +++
relative growth phenotype, lowGal (O. sativa ACCase): +++
Substance: S1784N: mutated ACCase, numbering per SEQ ID NO: 2
clethodim tolerance [2]: measurable clethodim tolerance

relative growth phenotype, 0.05 mM clethodim (O. sativa ACCase): +++
relative growth phenotype, 0.1 mM clethodim (O. sativa ACCase): +++
relative growth phenotype, 0.25 mM clethodim (O. sativa ACCase): +++
relative growth phenotype, 0.5 mM clethodim (O. sativa ACCase): +++
relative growth phenotype, 1 mM clethodim (O. sativa ACCase): +
relative growth phenotype, 2 mM clethodim (O. sativa ACCase): (−)
relative growth phenotype, highGal (O. sativa ACCase): +++
relative growth phenotype, lowGal (O. sativa ACCase): +++
Substance: V2075L: mutated ACCase, numbering per SEQ ID NO: 2
clethodim tolerance [2]: measurable clethodim tolerance
growth on clethodim plates (in words) (O. sativa ACCase; [3]): grew to a similar extent as the V2075L mutation
